Experimental findings from patent publication US7709511B2, “Benzothiazolone derivatives” (AstraZeneca AB, priority 2005, dated 2010) are described below.

The experiment deals with T1, recombinant human α1D receptor (Homo sapiens, UniProt P25100).
T1 construct: made in house; host or cells: HEK293 cells (membranes)
T1 sequence (P25100 1-572): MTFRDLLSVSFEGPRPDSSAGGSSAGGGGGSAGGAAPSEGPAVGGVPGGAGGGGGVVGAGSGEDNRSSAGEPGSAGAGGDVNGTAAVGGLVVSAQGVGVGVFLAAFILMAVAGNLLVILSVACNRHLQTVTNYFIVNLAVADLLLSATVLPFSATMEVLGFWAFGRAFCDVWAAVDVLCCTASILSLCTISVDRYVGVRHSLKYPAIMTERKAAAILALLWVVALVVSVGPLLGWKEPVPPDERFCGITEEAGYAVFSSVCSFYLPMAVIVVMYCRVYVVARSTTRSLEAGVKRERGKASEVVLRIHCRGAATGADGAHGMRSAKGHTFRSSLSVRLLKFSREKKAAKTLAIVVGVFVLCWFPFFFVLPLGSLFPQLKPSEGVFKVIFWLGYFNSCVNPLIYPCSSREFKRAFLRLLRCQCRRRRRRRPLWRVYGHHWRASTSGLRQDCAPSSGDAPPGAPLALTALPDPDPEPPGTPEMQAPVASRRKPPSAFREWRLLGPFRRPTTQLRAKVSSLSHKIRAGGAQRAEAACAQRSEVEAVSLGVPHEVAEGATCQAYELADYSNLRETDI
The experiment in a line: Adrenergic α1D selectivity assay, inhibition of [3H]-prazosin binding to membranes. The note with it: HEK293 membranes, [3H]-prazosin 0.3 nM; read-out: α1 bind pIC50 (converted). The procedure:
Membranes were prepared from human embryonic kidney 293 (HEK293) cells expressing recombinant human α1D receptor. These were diluted in Assay Buffer (50 mM HEPES, 1 mM EDTA, 0.1% gelatin, pH 7.4) to provide a final concentration of membranes that gave a clear window between maximum and minimum specific binding.
Assays were performed in U-bottomed 96-well polypropylene plates. 10 μL [^3H]-prazosin (0.3 nM final concentration) and 10 μL of test compound (10× final concentration) were added to each test well. For each assay plate 8 replicates were obtained for [^3H]-prazosin binding in the presence of 10 μL vehicle (10% (v/v) DMSO in Assay Buffer; defining maximum binding) or 10 μL BMY7378 (10 μM final concentration; defining non-specific binding (NSB)). Membranes were then added to achieve a final volume of 100 μL. The plates were incubated for 2 hours at room temperature and then filtered onto PEI coated GF/B filter plates, pre-soaked for 1 hour in Assay Buffer, using a 96-well plate Tomtec cell harvester. Five washes with 250 μL wash buffer (50 mM HEPES, 1 mM EDTA, pH 7.4) were performed at 4° C. to remove unbound radioactivity. The plates were dried then sealed from underneath using Packard plate sealers and MicroScint-O (50 μL) was added to each well. The plates were sealed (TopSeal A) and filter-bound radioactivity was measured with a scintillation counter (TopCount, Packard BioScience) using a 3-minute counting protocol.
Total specific binding (B0) was determined by subtracting the mean NSB from the mean maximum binding. NSB values were also subtracted from values from all other wells. […] Data was fitted to a four parameter logistic equation to determine the compound potency, which was expressed as pIC50 (negative log molar concentration inducing 50% inhibition of [^3H]-prazosin binding).

Each structure is given as a SMILES string. Where a name gives a salt, the structure may show the parent alone.

`CCN(CC)CCN(CCNCCc1ccc(O)c2[nH]c(=O)sc12)C(=O)CCOCCc1ccc(Cl)cc1` [Example 26, 3-[2-(4-Chlorophenyl)ethoxy]-N-(2-diethylaminoethyl)-N-{2-[2-(4-hydroxy-2-oxo-2,3-dihydro-1,3-benzothiazol-7-yl)ethylamino]ethyl}propanamide dihydrobromide]: the IC50 is 3160 nM.
The same measure for `CCN(CC)CCN(CCNCCc1ccc(O)c2[nH]c(=O)sc12)C(=O)CCOCCc1cccc(C)c1` [Example 28, N-[2-(Diethylamino)ethyl]-N-(2-{[2-(4-hydroxy-2-oxo-2,3-dihydro-1,3-benzothiazol-7-yl)ethyl]amino}ethyl)-3-[2-(3-methylphenyl)ethoxy]propanamide]: 1260 nM.
